Source: article PMC9516332 (Frontiers in Oncology, 2022)
pIC50: −log10 of the molar value. Read-outs that look alike come from different tables or passages of the source.

Key:
[1] = system: 134 cancer cell lines; assay: Cell viability assay (ATPlite, 72 hours), IC50 on cancer cell line panel
[2] = system: 134 cancer cell lines
[3] = molecular target: panel of 255 wild-type kinases (Homo sapiens, UniProt P42684); assay: Kinase panel profiling at 1 µmol/L (MSA or IMAP), percentage inhibition; format: biochemical; conditions: ARG kinase assay; 1 µmol/L single concentration; read-out: %-inhibition ARG
[4] = molecular target: panel of 255 wild-type kinases (Homo sapiens, UniProt O00311); assay: as above; format: biochemical; conditions: CDC7/ASK kinase assay; 1 µmol/L single concentration; read-out: %-inhibition CDC7/ASK

CO[C@]1(C(=O)N[C@@H](C)c2ccc(-n3cc(F)cn3)nc2)CC[C@H](c2nc(C)cc(Nc3cc(C)[nH]n3)n2)CC1 [pralsetinib]
pIC50 ([1]; Homo sapiens, MV4-11, read-out: IC50 in cell proliferation assay, MV4-11 cell line (FLT3 ITD)): 7.06
pIC50 ([1]; Homo sapiens, MeWo, read-out: IC50 in cell proliferation assay, MeWo cell line): 5.16
pIC50 ([1]; Homo sapiens, NCCIT, read-out: IC50 in cell proliferation assay, NCC-IT cell line): 5.78
pIC50 ([1]; Homo sapiens, NCI-H82, read-out: IC50 in cell proliferation assay, cell line NCI-H82): 4.96
pIC50 ([1]; Homo sapiens, NCI-H460, read-out: IC50 in cell proliferation assay, NCI-H460 cell line): 5.03
pIC50 ([1]; Homo sapiens, NCI-H661, read-out: IC50 in cell proliferation assay, NCI-H661 cell line): 5.68
pIC50 ([1]; Homo sapiens, NCI-H716, read-out: IC50 in cell proliferation assay, cell line NCI-H716 (FGFR2-COL14A1)): 6.61
pIC50 ([1]; Homo sapiens, NCI-H1650, read-out: IC50 in cell proliferation assay, NCI-H1650 cell line (EGFR exon19del)): 5.59
pIC50 ([1]; Homo sapiens, NCI-H1975, read-out: IC50 in cell proliferation assay, NCI-H1975 cell line (EGFR p.L858R + p.T790M)): 5.19
pIC50 ([1]; Homo sapiens, NCI-H2228, read-out: IC50 in cell proliferation assay, NCI-H2228 cell line (EML4-ALK)): 5.10
pIC50 ([1]; Homo sapiens, OVCAR-3, read-out: IC50 in cell proliferation assay, cell line OVCAR-3): 5.39
pIC50 ([1]; Homo sapiens, PFSK-1, read-out: IC50 in cell proliferation assay, cell line PFSK-1): 4.78
pIC50 ([1]; Homo sapiens, RL95-2, read-out: IC50 in cell proliferation assay, cell line RL95-2 (EGFR p.A289V)): 5.86
pIC50 ([1]; Homo sapiens, RPMI-7951, read-out: IC50 in cell proliferation assay, cell line RPMI-7951 (BRAF p.V600E)): 5.55
pIC50 ([1]; Homo sapiens, RS4-11, read-out: IC50 in cell proliferation assay, cell line RS4;11): 4.83
pIC50 ([1]; Homo sapiens, Rec1, read-out: IC50 in cell proliferation assay, cell line REC-1): 5.18
pIC50 ([1]; Homo sapiens, SHP77, read-out: IC50 in cell proliferation assay, cell line SHP-77): < 4.50
pIC50 ([1]; Homo sapiens, SK-BR-3, read-out: IC50 in cell proliferation assay, cell line SK-BR-3 (ERBB2 amplification)): 5.41
pIC50 ([1]; Homo sapiens, SK-N-AS, read-out: IC50 in cell proliferation assay, cell line SK-N-AS): 5.33
pIC50 ([1]; Homo sapiens, SK-N-FI, read-out: IC50 in cell proliferation assay, cell line SK-N-FI): 5.38
pIC50 ([1]; Homo sapiens, SK-N-MC, read-out: IC50 in cell proliferation assay, cell line SK-N-MC): 4.98
pIC50 ([1]; Homo sapiens, SK-N-SH, read-out: IC50 in cell proliferation assay, cell line SK-N-SH (ALK p.F1174L)): 5.78
pIC50 ([1]; Homo sapiens, SNU-5, read-out: IC50 in cell proliferation assay, cell line SNU-5 (MET amplification)): < 4.50
pIC50 ([1]; Homo sapiens, SNU-16, read-out: IC50 in cell proliferation assay, cell line SNU-16 (FGFR2 amplification)): 6.87
pIC50 ([1]; Homo sapiens, SNU-C2B, read-out: IC50 in cell proliferation assay, cell line SNU-C2B (EGFR p.R165Q)): 4.71
pIC50 ([1]; Homo sapiens, SU-DHL-1, read-out: IC50 in cell proliferation assay, cell line SU-DHL-1 (NPM1-ALK)): 4.94
pIC50 ([1]; Homo sapiens, SU-DHL-6, read-out: IC50 in cell proliferation assay, cell line SU-DHL-6): 5.71
pIC50 ([1]; Homo sapiens, SUP-T1, read-out: IC50 in cell proliferation assay, cell line SUP-T1): 4.51
pIC50 ([1]; Homo sapiens, SW48, read-out: IC50 in cell proliferation assay, cell line SW48 (EGFR p.G719S)): 5.34
pIC50 ([1]; Homo sapiens, SW480, read-out: IC50 in cell proliferation assay, cell line SW480): 4.81
pIC50 ([1]; Homo sapiens, SW626, read-out: IC50 in cell proliferation assay, cell line SW626): 5.02
pIC50 ([1]; Homo sapiens, SW780, read-out: IC50 in cell proliferation assay, cell line SW780 (FGFR3-BAIAP2L1)): 5.85
pIC50 ([1]; Homo sapiens, SW837, read-out: IC50 in cell proliferation assay, cell line SW837): 4.89
pIC50 ([1]; Homo sapiens, SW872, read-out: IC50 in cell proliferation assay, cell line SW872 (BRAF p.V600E)): 5.25
pIC50 ([1]; Homo sapiens, SW900, read-out: IC50 in cell proliferation assay, cell line SW900): 5.29
pIC50 ([1]; Homo sapiens, SW948, read-out: IC50 in cell proliferation assay, cell line SW948): 4.82
pIC50 ([1]; Homo sapiens, SW982, read-out: IC50 in cell proliferation assay, cell line SW982 (BRAF p.V600E)): 5.79
pIC50 ([1]; Homo sapiens, SW-620, read-out: IC50 in cell proliferation assay, cell line SW620): 5.61
pIC50 ([1]; Homo sapiens, T98G, read-out: IC50 in cell proliferation assay, cell line T98G): 6.11
pIC50 ([1]; Homo sapiens, TCC-SUP, read-out: IC50 in cell proliferation assay, cell line TCCSUP): 5.26
pIC50 ([1]; Homo sapiens, THP-1, read-out: IC50 in cell proliferation assay, cell line THP-1): < 4.50
pIC50 ([1]; Homo sapiens, U2OS, read-out: IC50 in cell proliferation assay, cell line U2OS): 5.57
pIC50 ([1]; Homo sapiens, U-87 MG, read-out: IC50 in cell proliferation assay, cell line U-87MG ATCC): 4.68
pIC50 ([1]; Homo sapiens, U-118-MG, read-out: IC50 in cell proliferation assay, cell line U-118MG): 5.56
pIC50 ([1]; Homo sapiens, UMUC3, read-out: IC50 in cell proliferation assay, cell line UM-UC-3): 5.55
pIC50 ([1]; Hs766T, read-out: IC50 in cell proliferation assay, Hs 766T cell line): 5.48
pIC50 ([1]; L-82, read-out: IC50 in cell proliferation assay, L-82 cell line (NPM1-ALK)): 4.96
pIC50 ([1]; Rh30, read-out: IC50 in cell proliferation assay, cell line Rh30): 5.18
pIC50 ([1]; read-out: IC50 in cell proliferation assay, 11-18 cell line (EGFR p.L858R)): 5.68
pIC50 ([1]; read-out: IC50 in cell proliferation assay, Hs 852.T cell line): 4.97
pIC50 ([1]; read-out: IC50 in cell proliferation assay, JAR cell line): 5.29
pIC50 ([1]; read-out: IC50 in cell proliferation assay, cell line 5637): 5.34
pIC50 ([1]; read-out: IC50 in cell proliferation assay, cell line A-388): 5.68
pIC50 ([1]; read-out: IC50 in cell proliferation assay, cell line DB): 4.88
pIC50 ([1]; read-out: IC50 in cell proliferation assay, cell line DEL (NPM1-ALK)): 4.79
pIC50 ([1]; read-out: IC50 in cell proliferation assay, cell line ES-2 (BRAF p.V600E)): 5.12
pIC50 ([1]; read-out: IC50 in cell proliferation assay, cell line PA-1): 5.35
pIC50 ([1]; read-out: IC50 in cell proliferation assay, cell line PC-3): 5.22
pIC50 ([1]; read-out: IC50 in cell proliferation assay, cell line RD): 4.84
pIC50 ([1]; read-out: IC50 in cell proliferation assay, cell line RKO (BRAF p.V600E)): 4.95
pIC50 ([1]; read-out: IC50 in cell proliferation assay, cell line RL): 5.25
pIC50 ([1]; read-out: IC50 in cell proliferation assay, cell line RT-4 (FGFR3-TACC3)): 6.34
pIC50 ([1]; read-out: IC50 in cell proliferation assay, cell line SR (NPM1-ALK)): 5.09
pIC50 ([1]; read-out: IC50 in cell proliferation assay, cell line T24): 5.18
pIC50 ([1]; read-out: IC50 in cell proliferation assay, cell line TT (RET p.C634W)): 7.26
pIC50 ([1]; read-out: IC50 in cell proliferation assay, cell line VA-ES-BJ): 5.11
pIC50 [2]: 5.58
inhibition at 1 µM [3]: 38%
inhibition at 1 µM [4]: -1.05%
